# Marks after values point to notes of the source that are not given here.
# Tests used:
# [1] = value for 1 mg; cited from earlier work
# [2] = CVD outcomes and Vitamin C supplementation (data not shown); assay type: in vivo, human; settings: unselected samples or Diabetic patients
# [3] = system: patients at high risk of cardiovascular events; assay: HOPE study: CV outcomes with vitamin E or ramipril by haptoglobin phenotype; assay type: in vivo, human; settings: for benefit of supplementation: unselected DM group
# Text: HOPE study and patient characteristics: The Heart Outcomes Prevention Evaluation (HOPE) study was designed to test the hypotheses that two preventive intervention strategies, namely angiotensin-converting enzyme (ACE) inhibition or vitamin E, would improve morbidity and mortality in patients at high risk of cardiovascular events compared with placebo. Patients were included in the study who were considered to be at high risk of future fatal or non-fatal cardiovascular events, by virtue of their age (>55 years), existing or previous cardiovascular disease, or diabetes. Diabetics had at least one other risk factor, either known vascular disease or other factors such as cigarette smoking, high cholesterol or hypertension. Ramipril or placebo was added to concomitant medication, which included, in a substantial proportion of patients, antihypertensive drugs (excluding ACE-I), lipid-lowering agents or aspirin. The HOPE study design and protocols have been previously described in detail (see, for example, The Heart Outcomes Prevention Evaluation Study Investigators NE J Med, 2000; 342:154-60 and […] Angioten Aldost Sys 2000; 1:18-20). Briefly, the study population consisted over 9,451 patients at high risk of CVD (3,654 DM). […] Patients were followed for a mean of 4.5 years. The primary study outcome was the composite of non-fatal MI, stroke or cardiovascular death. For samples from the HOPE Study, haptoglobin phenotyping was performed from 10 ul of plasma by polyacrylamide gel electrophoresis according to established methods (Hochberg I et al Atherosclerosis 2002; 161:441-446). A signature banding pattern is obtained from individuals who are homozygous for the 1 allele (Hp 1-1), homozygous for the 2 allele (Hp 2-2) or who are heterozygous at the haptoglobin locus (Hp 2-1). We have established 100% concordance between the haptoglobin phenotype as determined from plasma and the haptoglobin genotype as determined from genomic DNA by the polymerase chain reaction (Koch W, et al Clin Chem 2002; 277:13635-40). An unambiguous haptoglobin phenotype was obtained on greater than 99.6% of all samples assayed. Haptoglobin phenotyping was performed with no knowledge of the patients clinical or treatment status. All analyses of the HOPE Study data were carried out using SAS 6.02. Baseline characteristics of patients according to haptoglobin were compared by t tests or .chi^2 tests as appropriate. […] Patient characteristics of HOPE samples undergoing haptoglobin phenotyping: Haptoglobin phenotype was obtained on 3176 patients (1078 diabetics) from the original HOPE cohort for whom plasma was originally archived. These patients represented a randomly selected consecutive series of patients from the entire HOPE cohort.
# [4] = system: macrophages; assay: Cholesterol efflux from macrophage by serum from treated diabetic mice; settings: for effect on cholesterol efflux activity: Hp 2-2 diabetic mice
# [5] = system: patients at high risk of cardiovascular events; settings: HOPE study as published; daily 400 IU for 4.5 years; not stratified by haptoglobin; cited from earlier work
# [6] = DM patients with the other haptoglobin phenotypes (Hp 1-1 and Hp 2-1)
# [7] = all patients, Hp 1-1, supplementation vs placebo
# [8] = all patients, Hp 2-1, supplementation vs placebo
# [9] = all patients, Hp 2-2, supplementation vs placebo
# [10] = entire sample, regardless of haptoglobin type
# [11] = serum from diabetic Hp 1-1 mice treated orally 28 days (vitamin E 1 mg/kg/day; GPx mimetic 2 mg/kg/day)
# [12] = serum from diabetic Hp 2-2 mice treated orally 28 days (vitamin E 1 mg/kg/day; GPx mimetic 2 mg/kg/day)
# [13] = DM patients only, Hp 2-2, listed as vitamin E
compound,measurement,setting,value
Cc1c(C)c2c(c(C)c1O)CC[C@@](C)(CCC[C@H](C)CCC[C@H](C)CCCC(C)C)O2 [RRR-alpha-tocopherol],specific activity,[1],1.49 IU per milligram
CC(=O)Oc1c(C)c(C)c2c(c1C)CCC(C)(CCCC(C)CCCC(C)CCCC(C)C)O2 (racemic) [all-rac-α-tocopherol acetate],specific activity,[1],1.00 IU per milligram
O=C1O[C@H]([C@@H](O)CO)C(O)=C1O [Vitamin C],correlation between CVD outcomes and supplementation,[2],no correlation
"CCOC(=O)[C@H](CCc1ccccc1)N[C@@H](C)C(=O)N1[C@H](C(=O)O)C[C@@H]2CCC[C@@H]21 [Ramipril, ramipril]","Relative Risk Ratio, Primary (non-fatal MI, stroke or cardiovascular death) (95% CI)","[3]; DM patients only, Hp 1-1",0.78(0.35-1.75)
same,"Relative Risk Ratio, Primary (non-fatal MI, stroke or cardiovascular death) (95% CI)","[3]; DM patients only, Hp 2-1",0.97
same,"Relative Risk Ratio, Primary (non-fatal MI, stroke or cardiovascular death) (95% CI)","[3]; DM patients only, Hp 2-2",0.57
same,"Relative Risk Ratio, Primary (non-fatal MI, stroke or cardiovascular death) (95% CI)","[3]; DM patients only, Hp 2-2, listed as ramipril",0.57
same,benefit for any of the primary CV outcomes,[3]; [6],no benefit
same,"Relative Risk Ratio, Primary (non-fatal MI, stroke or cardiovascular death) (95% CI)",[3]; [7],0.74(0.47-1.17)
same,"Relative Risk Ratio, Primary (non-fatal MI, stroke or cardiovascular death) (95% CI)",[3]; [8],0.81 (0.62-1.07)
same,"Relative Risk Ratio, Primary (non-fatal MI, stroke or cardiovascular death) (95% CI)",[3]; [9],0.76
same,"composite endpoint (non-fatal MI, stroke or cardiovascular death)",[3]; diabetic individuals in the HOPE study having a Hp 2-2 phenotype,statistically significant reduction
same,benefit for any of the primary CV outcomes,[3]; [10],no significant benefit
same,benefit of supplementation,[3],no significant benefit
Cc1c(C)c2c(c(C)c1O)CCC(C)(CCCC(C)CCCC(C)CCCC(C)C)O2 (racemic) [all-rac-.alpha-tocopherol],specific activity,[1],1.10 IU per milligram
CC(=O)Oc1c(C)c(C)c2c(c1C)CC[C@@](C)(CCC[C@H](C)CCC[C@H](C)CCCC(C)C)O2 [RRR-.alpha-tocopherol acetate],specific activity,[1],1.36 IU per milligram
CC1(C)CN[Se]c2ccccc21 [GPx mimetic],effect on cholesterol efflux activity,[4],increased
same,Tritiated cholesterol efflux from macrophages,[4]; [11],14.6 +/− 0.4 % per hour
same,Tritiated cholesterol efflux from macrophages,[4]; [12],14.0 +/− 0.5 % per hour
CC(=O)Oc1c(C)c(C)c2c(c1C)CC[C@@](C)(CCC[C@H](C)CCC[C@H](C)CCCC(C)C)O2 [Vitamin E],"Relative Risk Ratio, CV death (95% CI)","[3]; DM patients only, Hp 1-1",0.64
same,"Relative Risk Ratio, MI (95% CI)","[3]; DM patients only, Hp 1-1",0.83
same,"Relative Risk Ratio, Primary (non-fatal MI, stroke or cardiovascular death) (95% CI)","[3]; DM patients only, Hp 1-1",0.84
same,"Relative Risk Ratio, Stroke (95% CI)","[3]; DM patients only, Hp 1-1",2.24
same,"Relative Risk Ratio, CV death (95% CI)","[3]; DM patients only, Hp 2-1",1.0(0.53-1.93)
same,"Relative Risk Ratio, MI (95% CI)","[3]; DM patients only, Hp 2-1",0.99
same,"Relative Risk Ratio, Primary (non-fatal MI, stroke or cardiovascular death) (95% CI)","[3]; DM patients only, Hp 2-1",1.08
same,"Relative Risk Ratio, Stroke (95% CI)","[3]; DM patients only, Hp 2-1",0.99(0.45-2.18)
same,"Relative Risk Ratio, CV death (95% CI)","[3]; DM patients only, Hp 2-2",0.45 (0.23-0.90) *
same,"Relative Risk Ratio, MI (95% CI)","[3]; DM patients only, Hp 2-2",0.57
same,"Relative Risk Ratio, Primary (non-fatal MI, stroke or cardiovascular death) (95% CI)","[3]; DM patients only, Hp 2-2",0.70(0.45-1.10)
same,"Relative Risk Ratio, Stroke (95% CI)","[3]; DM patients only, Hp 2-2",1.15
same,"Relative Risk Ratio, CV death (95% CI)",[3]; [13],0.45
same,"Relative Risk Ratio, MI (95% CI)",[3]; [13],0.57
same,benefit for any of the primary CV outcomes,[3]; [6],no significant benefit
same,"Relative Risk Ratio, CV death (95% CI)","[3]; all patients, Hp 1-1",1.10
same,"Relative Risk Ratio, MI (95% CI)","[3]; all patients, Hp 1-1",0.79
same,"Relative Risk Ratio, Stroke (95% CI)","[3]; all patients, Hp 1-1",1.50
same,"Relative Risk Ratio, Primary (non-fatal MI, stroke or cardiovascular death) (95% CI)",[3]; [7],0.97(0.63-1.50)
same,"Relative Risk Ratio, CV death (95% CI)","[3]; all patients, Hp 2-1",1.07(0.69-1.64)
same,"Relative Risk Ratio, MI (95% CI)","[3]; all patients, Hp 2-1",1.02(0.75-1.38)
same,"Relative Risk Ratio, Stroke (95% CI)","[3]; all patients, Hp 2-1",0.92(0.53-1.60)
same,"Relative Risk Ratio, Primary (non-fatal MI, stroke or cardiovascular death) (95% CI)",[3]; [8],0.96(0.74-1.25)
same,"Relative Risk Ratio, CV death (95% CI)","[3]; all patients, Hp 2-2",0.75
same,"Relative Risk Ratio, MI (95% CI)","[3]; all patients, Hp 2-2",0.94(0.68-1.30)
same,"Relative Risk Ratio, Stroke (95% CI)","[3]; all patients, Hp 2-2",0.85
same,"Relative Risk Ratio, Primary (non-fatal MI, stroke or cardiovascular death) (95% CI)",[3]; [9],0.92
same,benefit for any of the primary CV outcomes,[3]; [10],no significant benefit
same,benefit of supplementation,[3],no significant benefit
same,effect on cholesterol efflux activity,[4],increased
same,Tritiated cholesterol efflux from macrophages,[4]; [11],16.1 +/− 0.5 % per hour
same,Tritiated cholesterol efflux from macrophages,[4]; [12],15.3 +/− 0.7 % per hour
same,clinical benefit on cardiovascular (CV) outcomes,[5],failed to demonstrate any clinical benefit

# Source: patent US20080213785A1, “Method of predicting a benefit of antioxidant therapy for prevention or treatment of vasclar disease in hyperglycemic individuals” (priority 2000, published 2008)
